Experimental data reported in patent US20250205135A1, “COMPOSICION DE EXTRACTOS VEGETALES PARA PALIAR LOS EFECTOS DEL ENVEJECIMIENTO O RETRASO DE LA SENESCENCIA CELULAR” (MONTELOEDER S.L., priority 2022, published 2025).

Test system: normal human dermal fibroblasts (NHDF)
Test: MTT cell proliferation assay in fibroblasts pre-aged with H2O2
Format: cell-based
Conditions: EGF 20 ng/ml positive control, after 3 hours H2O2 (500 μM)
Procedure: For the cell proliferation assay, normal human dermal fibroblasts (NHDF) were exposed for 3 hours to conditioned ageing medium containing H2O2 (500 μM). After the incubation period, the medium was replaced with fresh medium containing composition A according to the invention at different concentrations for 96 hours. Epidermal growth factor (EGF, 20 ng/ml) was included as positive control and NHDF without pretreatment in H2O2 as non-aged control (Control). Cell viability was quantified using the MTT assay.

Epidermal growth factor [EGF]
increase in cell viability compared to the aged control: +22.9%
